Results published in patent US20240092835A1, “NOVEL PEPTIDES CAPABLE OF ALTERING NK CELL ACTIVITY” (Massachusetts Institute of Technology, priority 2022, published 2024).
“Also recorded” adds a separate entry of the source. Where no end group is shown, it is not given here.

Assays:
NKG2A−/NKG2C+ NK cells [1] = assay: NK cell activation markers in NKG2A-/NKG2C+ NK cells incubated with peptide and K562 expressing HLA-E (activation); assay type: cell-based, human; details: for effect on NKG2A−/NKG2C+ NK cell activation (in words): K562 expressing HLA-E, CD107a, IFNG, TNF, CCL3; for percentage of CCL3+ NK cells / percentage of CD107+ NK cells / percentage of IFNG+ NK cells / percentage of TNF+ NK cells: NKG2A-/NKG2C+ NK cells, K562/HLA-E
Procedure, shortened: (§1)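 Human myelogenous leukemia K562 cells displaying HLA-E carry the test peptides (human or HCMV origin) and are presented to NK cells; surface activation markers are scored by percent positive cells.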

NKG2A−/NKG2C+ NK cells [2] = assay: NKG2A-/NKG2C+ NK cell activation with peptide and RMA-S cells expressing HLA-E; assay type: cell-based; details: RMA-S cells expressing HLA-E, NKG2A−/NKG2C+ NK cells
Procedure: An antigen processing-defective lymphoma cell line (RMA-S), with a low-level expression of HLA-E, were incubated with the novel peptides to determine the inhibitory strength on NKG2A−/NKG2C+NK cells relative to positive control sequences with differential effects ([…] (SEQ ID NO: 19)/VMAPRTLFL (SEQ ID NO: 18)). The effects of the peptides on NK cell inhibition were determined by measuring four markers of NK cell activation (CD107a, IFNG, TNF, CCL3) in NKG2A−/NKG2C+NK cells (FIGS. 2A-2D). Activation was indicated by an increase in percent cells positive for cell surface markers.

HLA-E = biological target: T1, HLA-E (Homo sapiens, UniProt P13747); assay: HLA-E surface stabilization assay with RMA-S/HLA-E cells; assay type: cell-based; details: 30 μM peptide, 16 hours; for HLA-E surface expression stability (GeoMFI): anti-HLA-E antibody
T1 construct: expressed in transfected cells; host or cells: RMA-S/HLA-E cells (antigen processing-defective lymphoma cell line)
Procedure: HLA-E surface expression was assessed by measuring geometric mean fluorescence intensity (GeoMFI) in RMA-S cells following immunofluorescence staining with an anti-HLA-E antibody (Table 14). Increased GeoMFI was indicative of increased HLA-E surface expression stability following novel peptide exposures (FIG. 3).

NKG2A+/NKG2C− NK cells = assay: NK cell activation markers in NKG2A+/NKG2C- NK cells incubated with peptide and K562 expressing HLA-E (inhibition); assay type: cell-based, human; details: for effect on NKG2A+/NKG2C− NK cell inhibition (in words): K562 expressing HLA-E, CD107a, IFNG, TNF, CCL3; for percentage of CCL3+ NK cells / percentage of CD107a+ NK cells / percentage of IFNG+ NK cells / percentage of TNF+ NK cells: NKG2A+/NKG2C- NK cells, K562/HLA-E
Procedure, shortened: as §1

NKG2A−/NKG2C− NK cells = assay: NK cell activation markers in control NKG2A-/NKG2C- NK cells incubated with peptide and K562 expressing HLA-E; assay type: cell-based, human
Procedure, shortened: as §1

T1 sequence (P13747 22-358): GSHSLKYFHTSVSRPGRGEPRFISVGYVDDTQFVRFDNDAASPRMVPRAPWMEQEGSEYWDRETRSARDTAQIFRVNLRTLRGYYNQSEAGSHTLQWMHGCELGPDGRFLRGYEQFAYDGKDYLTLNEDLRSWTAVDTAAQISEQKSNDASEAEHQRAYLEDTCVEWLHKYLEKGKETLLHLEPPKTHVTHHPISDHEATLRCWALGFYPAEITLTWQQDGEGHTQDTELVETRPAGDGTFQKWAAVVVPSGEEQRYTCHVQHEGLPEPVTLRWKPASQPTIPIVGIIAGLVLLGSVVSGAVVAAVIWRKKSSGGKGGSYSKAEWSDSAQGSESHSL
T1 sequence (P61769 21-119 partner): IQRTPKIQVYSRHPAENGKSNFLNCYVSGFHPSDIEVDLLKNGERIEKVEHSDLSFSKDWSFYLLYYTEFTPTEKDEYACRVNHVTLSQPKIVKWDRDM

For TGPWRSLWI [human3, TGPWRSLWI], the “effect on NKG2A−/NKG2C+ NK cell activation (in words)” value (NKG2A−/NKG2C+ NK cells [1]; listed as SEQ ID NO. 2) was “activate”, the “effect on NKG2A−/NKG2C+ NK cell activation (in words)” value (NKG2A−/NKG2C+ NK cells [1]; listed as h3) was “activated” and the “percentage of CCL3+ NK cells” value (NKG2A−/NKG2C+ NK cells [1]; Trial 1) was 60.9%. For the same sequence, the “percentage of CD107+ NK cells” value (NKG2A−/NKG2C+ NK cells [1]; Trial 1) was 50.7%, the “percentage of IFNG+ NK cells” value (NKG2A−/NKG2C+ NK cells [1]; Trial 1) was 27.8% and the “percentage of TNF+ NK cells” value (NKG2A−/NKG2C+ NK cells [1]; Trial 1) was 19.1%. The “percentage of CCL3+ NK cells” value (NKG2A−/NKG2C+ NK cells [1]; Trial 2) was 75.8%, the “percentage of CD107+ NK cells” value (NKG2A−/NKG2C+ NK cells [1]; Trial 2) was 63.4% and the “percentage of IFNG+ NK cells” value (NKG2A−/NKG2C+ NK cells [1]; Trial 2) was 36.4%. For the same sequence, the “percentage of TNF+ NK cells” value (NKG2A−/NKG2C+ NK cells [1]; Trial 2) was 24.8%, the “percentage of CCL3+ NK cells” value (NKG2A−/NKG2C+ NK cells [1]; Trial 3) was 75.7% and the “percentage of CD107+ NK cells” value (NKG2A−/NKG2C+ NK cells [1]; Trial 3) was 73.9%. The “percentage of IFNG+ NK cells” value (NKG2A−/NKG2C+ NK cells [1]; Trial 3) was 55.4%, the “percentage of TNF+ NK cells” value (NKG2A−/NKG2C+ NK cells [1]; Trial 3) was 47.1% and the “percentage of CCL3+ NK cells” value (NKG2A−/NKG2C+ NK cells [1]; Trial 4) was 64.5%. For the same sequence, the “percentage of CD107+ NK cells” value (NKG2A−/NKG2C+ NK cells [1]; Trial 4) was 62.3%, the “percentage of IFNG+ NK cells” value (NKG2A−/NKG2C+ NK cells [1]; Trial 4) was 46.9% and the “percentage of TNF+ NK cells” value (NKG2A−/NKG2C+ NK cells [1]; Trial 4) was 37.4%. For the same sequence, the “percentage of CCL3+ NK cells” value (NKG2A−/NKG2C+ NK cells [1]; Trial 5) was 65.7%, the “percentage of CD107+ NK cells” value (NKG2A−/NKG2C+ NK cells [1]; Trial 5) was 61% and the “percentage of IFNG+ NK cells” value (NKG2A−/NKG2C+ NK cells [1]; Trial 5) was 43.5%. The “percentage of TNF+ NK cells” value (NKG2A−/NKG2C+ NK cells [1]; Trial 5) was 37.7%, the “percentage of CCL3+ NK cells” value (NKG2A−/NKG2C+ NK cells [1]; Trial 6) was 46% and the “percentage of CD107+ NK cells” value (NKG2A−/NKG2C+ NK cells [1]; Trial 6) was 39.5%. For the same sequence, the “percentage of IFNG+ NK cells” value (NKG2A−/NKG2C+ NK cells [1]; Trial 6) was 23.3%, the “percentage of TNF+ NK cells” value (NKG2A−/NKG2C+ NK cells [1]; Trial 6) was 15.8% and the “increase in CCL3+ NK cells (in words)” value (NKG2A−/NKG2C+ NK cells [2]) was “slight increases”. For the same sequence, the “increase in CD107a+ NK cells (in words)” value (NKG2A−/NKG2C+ NK cells [2]) was “slight increases”, the “increase in IFNG+ NK cells (in words)” value (NKG2A−/NKG2C+ NK cells [2]) was “no increase” and the “increase in TNF+ NK cells (in words)” value (NKG2A−/NKG2C+ NK cells [2]) was “no increase”. The “HLA-E surface expression stability (GeoMFI)” value (HLA-E; Trial 1) was 510 GeoMFI, the “HLA-E surface expression stability (GeoMFI)” value (HLA-E; Trial 2) was 428 GeoMFI and the “HLA-E surface expression stability (GeoMFI)” value (HLA-E; Trial 3) was 421 GeoMFI. The “HLA-E surface expression stability (GeoMFI)” value (HLA-E; Trial 4) was 596 GeoMFI, the “HLA-E surface expression stabilization strength (in words)” value (HLA-E; listed as GTF3C5293-301) was “closest to the experimental negative control (DMSO); also recorded: lowest” and the “effect on NKG2A+/NKG2C− NK cell inhibition (in words)” value (NKG2A+/NKG2C− NK cells; listed as SEQ ID NO. 2) was “no or minimal effect”. For the same sequence, the “effect on NKG2A+/NKG2C− NK cell inhibition (in words)” value (NKG2A+/NKG2C− NK cells; listed as h3) was “no effect”, the “percentage of CCL3+ NK cells” value (NKG2A+/NKG2C− NK cells; Trial 1) was 54.6% and the “percentage of CD107a+ NK cells” value (NKG2A+/NKG2C− NK cells; Trial 1) was 34.8%. For the same sequence, the “percentage of IFNG+ NK cells” value (NKG2A+/NKG2C− NK cells; Trial 1) was 15.5%, the “percentage of TNF+ NK cells” value (NKG2A+/NKG2C− NK cells; Trial 1) was 6.18% and the “percentage of CCL3+ NK cells” value (NKG2A+/NKG2C− NK cells; Trial 2) was 73.9%. The “percentage of CD107a+ NK cells” value (NKG2A+/NKG2C− NK cells; Trial 2) was 47.2%, the “percentage of IFNG+ NK cells” value (NKG2A+/NKG2C− NK cells; Trial 2) was 26.8% and the “percentage of TNF+ NK cells” value (NKG2A+/NKG2C− NK cells; Trial 2) was 12.4%. The “percentage of CCL3+ NK cells” value (NKG2A+/NKG2C− NK cells; Trial 3) was 55.1%, the “percentage of CD107a+ NK cells” value (NKG2A+/NKG2C− NK cells; Trial 3) was 44.9% and the “percentage of IFNG+ NK cells” value (NKG2A+/NKG2C− NK cells; Trial 3) was 32.1%. The “percentage of TNF+ NK cells” value (NKG2A+/NKG2C− NK cells; Trial 3) was 19.7%, the “percentage of CCL3+ NK cells” value (NKG2A+/NKG2C− NK cells; Trial 4) was 46.5% and the “percentage of CD107a+ NK cells” value (NKG2A+/NKG2C− NK cells; Trial 4) was 37.7%. The “percentage of IFNG+ NK cells” value (NKG2A+/NKG2C− NK cells; Trial 4) was 20.1%, the “percentage of TNF+ NK cells” value (NKG2A+/NKG2C− NK cells; Trial 4) was 12.5% and the “percentage of CCL3+ NK cells” value (NKG2A+/NKG2C− NK cells; Trial 5) was 49.6%. For the same sequence, the “percentage of CD107a+ NK cells” value (NKG2A+/NKG2C− NK cells; Trial 5) was 35.9%, the “percentage of IFNG+ NK cells” value (NKG2A+/NKG2C− NK cells; Trial 5) was 19.2% and the “percentage of TNF+ NK cells” value (NKG2A+/NKG2C− NK cells; Trial 5) was 9.62%. The “percentage of CCL3+ NK cells” value (NKG2A+/NKG2C− NK cells; Trial 6) was 33.1%, the “percentage of CD107a+ NK cells” value (NKG2A+/NKG2C− NK cells; Trial 6) was 25.7% and the “percentage of IFNG+ NK cells” value (NKG2A+/NKG2C− NK cells; Trial 6) was 9.52%. For the same sequence, the “percentage of TNF+ NK cells” value (NKG2A+/NKG2C− NK cells; Trial 6) was 5.43%, the “percentage CCL3+ NK cells” value (NKG2A−/NKG2C− NK cells; Trial 1) was 38.1% and the “percentage CD107+ NK cells” value (NKG2A−/NKG2C− NK cells; Trial 1) was 28.9%. For the same sequence, the “percentage TNF+ NK cells” value (NKG2A−/NKG2C− NK cells; Trial 1) was 4.31%, the “percentage of IFNG+ NK cells” value (NKG2A−/NKG2C− NK cells; Trial 1) was 17.2% and the “percentage CCL3+ NK cells” value (NKG2A−/NKG2C− NK cells; Trial 2) was 61%. For the same sequence, the “percentage CD107+ NK cells” value (NKG2A−/NKG2C− NK cells; Trial 2) was 37.9%, the “percentage TNF+ NK cells” value (NKG2A−/NKG2C− NK cells; Trial 2) was 8.81% and the “percentage of IFNG+ NK cells” value (NKG2A−/NKG2C− NK cells; Trial 2) was 26.9%. For the same sequence, the “percentage CCL3+ NK cells” value (NKG2A−/NKG2C− NK cells; Trial 3) was 55.4%, the “percentage CD107+ NK cells” value (NKG2A−/NKG2C− NK cells; Trial 3) was 50.4% and the “percentage TNF+ NK cells” value (NKG2A−/NKG2C− NK cells; Trial 3) was 20.8%. For the same sequence, the “percentage of IFNG+ NK cells” value (NKG2A−/NKG2C− NK cells; Trial 3) was 44%, the “percentage CCL3+ NK cells” value (NKG2A−/NKG2C− NK cells; Trial 4) was 36.6% and the “percentage CD107+ NK cells” value (NKG2A−/NKG2C− NK cells; Trial 4) was 32.6%. The “percentage TNF+ NK cells” value (NKG2A−/NKG2C− NK cells; Trial 4) was 11.3%, the “percentage of IFNG+ NK cells” value (NKG2A−/NKG2C− NK cells; Trial 4) was 21.2% and the “percentage CCL3+ NK cells” value (NKG2A−/NKG2C− NK cells; Trial 5) was 31%. The “percentage CD107+ NK cells” value (NKG2A−/NKG2C− NK cells; Trial 5) was 26.2%, the “percentage TNF+ NK cells” value (NKG2A−/NKG2C− NK cells; Trial 5) was 8.06% and the “percentage of IFNG+ NK cells” value (NKG2A−/NKG2C− NK cells; Trial 5) was 19.1%. The “percentage CCL3+ NK cells” value (NKG2A−/NKG2C− NK cells; Trial 6) was 26.5%, the “percentage CD107+ NK cells” value (NKG2A−/NKG2C− NK cells; Trial 6) was 18.6% and the “percentage TNF+ NK cells” value (NKG2A−/NKG2C− NK cells; Trial 6) was 4.18%. For the same sequence, the “percentage of IFNG+ NK cells” value (NKG2A−/NKG2C− NK cells; Trial 6) was 8.37%.
